Data reported in ChEMBL document CHEMBL4622979, “Non-rigid Diarylmethyl Analogs of Baloxavir as Cap-Dependent Endonuclease Inhibitors of Influenza Viruses” (J Med Chem, 2020).

Key:
[1] = Acute toxicity in CD1 mouse assessed as effect on body weight at 2000 mg/kg, po measured for 2 weeks; assay type: organism-based; settings: in vivo, 336 h
[2] = Acute toxicity in CD1 mouse assessed as effect on food consumption at 2000 mg/kg, po measured for 2 weeks; assay type: organism-based; settings: in vivo, 336 h
[3] = Ratio of Cmax in CD1 mouse lung to plasma assessed as (12aR)-12-(Diphenylmethyl)-7-hydroxy-3,4,12,12a-tetrahydro-1H-[1,4]oxazino[3,4-c]pyrido[2,1-f ][1,2,4]triazine-6,8-dione level at 15 mg/kg, po administered as single dose by LC-MS/MS analysis; assay type: ADME, organism-based; settings: other tissue
[4] = Elimination rate constant in CD1 mouse plasma assessed as (12aR)-12-(Diphenylmethyl)-7-hydroxy-3,4,12,12a-tetrahydro-1H-[1,4]oxazino[3,4-c]pyrido[2,1-f ][1,2,4]triazine-6,8-dione level at 15 mg/kg, po administered as single dose measured up to 24 hrs by LC-MS/MS analysis; assay type: ADME, organism-based; settings: in vivo
[5] = Elimination rate constant in CD1 mouse blood assessed as (12aR)-12-(Diphenylmethyl)-7-hydroxy-3,4,12,12a-tetrahydro-1H-[1,4]oxazino[3,4-c]pyrido[2,1-f ][1,2,4]triazine-6,8-dione level at 15 mg/kg, po administered as single dose measured up to 24 hrs by LC-MS/MS analysis; assay type: ADME, organism-based; settings: in vivo
[6] = Half life in CD1 mouse blood assessed as (12aR)-12-(Diphenylmethyl)-7-hydroxy-3,4,12,12a-tetrahydro-1H-[1,4]oxazino[3,4-c]pyrido[2,1-f ][1,2,4]triazine-6,8-dione level at 15 mg/kg, po administered as single dose measured up to 24 hrs by LC-MS/MS analysis; assay type: ADME, organism-based; settings: in vivo
[7] = Cmax in CD1 mouse blood assessed as (12aR)-12-(Diphenylmethyl)-7-hydroxy-3,4,12,12a-tetrahydro-1H-[1,4]oxazino[3,4-c]pyrido[2,1-f ][1,2,4]triazine-6,8-dione level at 15 mg/kg, po administered as single dose measured up to 24 hrs by LC-MS/MS analysis; assay type: ADME, organism-based; parameters: dose 15 mg/kg, route oral; settings: in vivo
[8] = Half life in CD1 mouse liver assessed as (12aR)-12-(Diphenylmethyl)-7-hydroxy-3,4,12,12a-tetrahydro-1H-[1,4]oxazino[3,4-c]pyrido[2,1-f ][1,2,4]triazine-6,8-dione level at 15 mg/kg, po administered as single dose measured up to 24 hrs by LC-MS/MS analysis; assay type: ADME, organism-based; settings: in vivo
[9] = MRTlast in CD1 mouse heart assessed as (12aR)-12-(Diphenylmethyl)-7-hydroxy-3,4,12,12a-tetrahydro-1H-[1,4]oxazino[3,4-c]pyrido[2,1-f ][1,2,4]triazine-6,8-dione level at 15 mg/kg, po administered as single dose measured up to 24 hrs by LC-MS/MS analysis; assay type: ADME, organism-based; settings: in vivo
[10] = Elimination rate constant in CD1 mouse lung assessed as (12aR)-12-(Diphenylmethyl)-7-hydroxy-3,4,12,12a-tetrahydro-1H-[1,4]oxazino[3,4-c]pyrido[2,1-f ][1,2,4]triazine-6,8-dione level at 15 mg/kg, po administered as single dose measured up to 24 hrs by LC-MS/MS analysis; assay type: ADME, organism-based; settings: in vivo
[11] = Half life in CD1 mouse trachea assessed as (12aR)-12-(Diphenylmethyl)-7-hydroxy-3,4,12,12a-tetrahydro-1H-[1,4]oxazino[3,4-c]pyrido[2,1-f ][1,2,4]triazine-6,8-dione level at 15 mg/kg, po administered as single dose measured up to 24 hrs by LC-MS/MS analysis; assay type: ADME, organism-based; settings: in vivo
[12] = MRTlast in CD1 mouse brain assessed as (12aR)-12-(Diphenylmethyl)-7-hydroxy-3,4,12,12a-tetrahydro-1H-[1,4]oxazino[3,4-c]pyrido[2,1-f ][1,2,4]triazine-6,8-dione level at 15 mg/kg, po administered as single dose measured up to 24 hrs by LC-MS/MS analysis; assay type: ADME, organism-based; settings: in vivo
[13] = MRTlast in CD1 mouse spleen assessed as (12aR)-12-(Diphenylmethyl)-7-hydroxy-3,4,12,12a-tetrahydro-1H-[1,4]oxazino[3,4-c]pyrido[2,1-f ][1,2,4]triazine-6,8-dione level at 15 mg/kg, po administered as single dose measured up to 24 hrs by LC-MS/MS analysis; assay type: ADME, organism-based; settings: in vivo
[14] = Tmax in CD1 mouse muscle assessed as (12aR)-12-(Diphenylmethyl)-7-hydroxy-3,4,12,12a-tetrahydro-1H-[1,4]oxazino[3,4-c]pyrido[2,1-f ][1,2,4]triazine-6,8-dione level at 15 mg/kg, po administered as single dose measured up to 24 hrs by LC-MS/MS analysis; assay type: ADME, organism-based, Muscle tissue; settings: in vivo
[15] = MRTlast in CD1 mouse muscle assessed as (12aR)-12-(Diphenylmethyl)-7-hydroxy-3,4,12,12a-tetrahydro-1H-[1,4]oxazino[3,4-c]pyrido[2,1-f ][1,2,4]triazine-6,8-dione level at 15 mg/kg, po administered as single dose measured up to 24 hrs by LC-MS/MS analysis; assay type: ADME, organism-based, Muscle tissue; settings: in vivo
[16] = Tmax in CD1 mouse blood assessed as baloxavir acid level at 15 mg/kg, po administered as single dose measured up to 24 hrs by LC-MS/MS analysis; assay type: ADME, organism-based; settings: in vivo
[17] = Cmax in CD1 mouse blood assessed as baloxavir acid level at 15 mg/kg, po administered as single dose measured up to 24 hrs by LC-MS/MS analysis; assay type: ADME, organism-based; parameters: dose 15 mg/kg, route oral; settings: in vivo
[18] = MRTlast in CD1 mouse blood assessed as baloxavir acid level at 15 mg/kg, po administered as single dose measured up to 24 hrs by LC-MS/MS analysis; assay type: ADME, organism-based; settings: in vivo
[19] = Ratio of AUClast in CD1 mouse blood to plasma assessed as baloxavir acid level at 15 mg/kg, po administered as single dose measured up to 24 hrs by LC-MS/MS analysis; assay type: ADME, organism-based; settings: in vivo
[20] = AUCinfinity in CD1 mouse kidney assessed as baloxavir acid level at 15 mg/kg, po administered as single dose measured up to 24 hrs by LC-MS/MS analysis; assay type: ADME, organism-based; parameters: dose 15 mg/kg, time infinity, route oral; settings: in vivo
[21] = Elimination rate constant in CD1 mouse heart assessed as baloxavir acid level at 15 mg/kg, po administered as single dose measured up to 24 hrs by LC-MS/MS analysis; assay type: ADME, organism-based; settings: in vivo
[22] = Elimination rate constant in CD1 mouse small intestine assessed as baloxavir acid level at 15 mg/kg, po administered as single dose measured up to 24 hrs by LC-MS/MS analysis; assay type: ADME, organism-based; settings: in vivo
[23] = AUClast in CD1 mouse small intestine assessed as baloxavir acid level at 15 mg/kg, po administered as single dose measured up to 24 hrs by LC-MS/MS analysis; assay type: ADME, organism-based; settings: in vivo
[24] = Elimination rate constant in CD1 mouse brain assessed as baloxavir acid level at 15 mg/kg, po administered as single dose measured up to 24 hrs by LC-MS/MS analysis; assay type: ADME, organism-based; settings: in vivo
[25] = Tmax in CD1 mouse spleen assessed as baloxavir acid level at 15 mg/kg, po administered as single dose measured up to 24 hrs by LC-MS/MS analysis; assay type: ADME, organism-based; settings: in vivo
[26] = AUClast in CD1 mouse spleen assessed as baloxavir acid level at 15 mg/kg, po administered as single dose measured up to 24 hrs by LC-MS/MS analysis; assay type: ADME, organism-based; settings: in vivo

COC(=O)OCOc1c2n(ccc1=O)N(C(c1ccccc1)c1ccccc1)[C@@H]1COCCN1C2=O
Activity [1]: Non-Toxic
Activity [2]: Non-Toxic
Ratio [3]: 2.2
Kel [4]: 0.44 h⁻¹
Kel [5]: 0.4 h⁻¹
t1/2 [6]: 1.74 h
Cmax [7]: 951 ng/g
t1/2 [8]: 2.34 h
MRTlast [9]: 1.88 h
Kel [10]: 0.44 h⁻¹
t1/2 [11]: 4.91 h
MRTlast [12]: 3.33 h
MRTlast [13]: 1.89 h
Tmax [14]: 0.5 h
MRTlast [15]: 1.86 h

COC(=O)OCOc1c2n(ccc1=O)N([C@@H]1c3ccccc3SCc3c1ccc(F)c3F)[C@@H]1COCCN1C2=O [BALOXAVIR MARBOXIL]
Tmax [16]: 2 h
Cmax [17]: 215 ng/g
MRTlast [18]: 3.93 h
Ratio AUC [19]: 3.05
AUC [20]: 21287 ng·h/g
Kel [21]: 0.2 h⁻¹
Kel [22]: 0.22 h⁻¹
AUClast [23]: 105778 ng·h/g
Kel [24]: 0.06 h⁻¹
Tmax [25]: 2 h
AUClast [26]: 3611 ng·h/g
